Results taken from ChEMBL document CHEMBL1122262, “Quantitative structure-activity relationships employing independent quantum chemical indices” (1983).

target: T1, Phenylethanolamine N-methyltransferase (Homo sapiens) (UniProt P11086); conditions: Oryctolagus cuniculus
T1 sequence (whole entry): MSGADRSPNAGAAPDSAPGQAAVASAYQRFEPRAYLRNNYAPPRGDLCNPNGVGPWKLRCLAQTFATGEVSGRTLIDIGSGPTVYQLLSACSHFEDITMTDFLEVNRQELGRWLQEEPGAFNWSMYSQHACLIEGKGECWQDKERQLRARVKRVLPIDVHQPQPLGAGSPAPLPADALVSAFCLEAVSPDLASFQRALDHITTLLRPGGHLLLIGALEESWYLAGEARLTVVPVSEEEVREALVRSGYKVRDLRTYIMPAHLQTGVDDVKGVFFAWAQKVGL
Description: Inhibition of phenylethanolamine N-methyltransferase(PNMT)activity

Question: With `NCc1ccc(Cl)cc1Cl` as the compound, how does the pI50 read?
Answer: The pI50 was 4.68.

Question: For `NCc1cc(Cl)ccc1Cl`, which pI50 is on record?
Answer: The pI50 was 4.82.

Question: How did the pI50 turn out when `Cc1ccccc1CN` was run?
Answer: Its pI50 is 4.17.

Question: `Cc1cccc(CN)c1` was tested. Which pI50 did it give?
Answer: The pI50 was 3.82.

Question: How did the pI50 turn out when `Cc1cccc(CN)c1C` was run?
Answer: Its pI50 is 4.24.

Question: How did the pI50 turn out when `NCc1cccc(C(F)(F)F)c1` was run?
Answer: The pI50 was 5.64.

Question: For `NCc1ccccc1F`, which pI50 is on record?
Answer: Its pI50 is 3.87.

Question: `NCc1ccc(C(F)(F)F)cc1` was tested. Which pI50 did it give?
Answer: Its pI50 is 5.2.

Question: Which pI50 does the source give for `NCc1ccccc1C(F)(F)F` here?
Answer: Its pI50 is 4.64.

Question: How did the pI50 turn out when `NCc1cccc(Cl)c1` was run?
Answer: Its pI50 is 5.07.

Question: Which pI50 does the source give for `NCc1cccc(F)c1` here?
Answer: The pI50 was 4.

Question: How did the pI50 turn out when `Cc1ccc(CN)cc1` was run?
Answer: Its pI50 is 3.16.

system: Escherichia coli; experiment: Logarithm of the inhibitory rate constant against Escherichia coli; format: functional; conditions: not given

Question: How did the Log rate constant turn out when `CN(C)[C@@H]1C(O)=C(C(N)=O)C(=O)[C@@]2(O)C(O)=C3C(=O)c4c(O)cccc4C[C@H]3C[C@@H]12` [SANCYCLINE] was run?
Answer: The Log rate constant was 1.98 M-1 s-1.

Question: For `CN(C)[C@@H]1C(=O)C(C(N)=O)=C(O)[C@@]2(O)C(=O)C3=C(O)c4c(ccc([N+](=O)[O-])c4O)CC3C[C@@H]12` (some centres undefined), which Log rate constant is on record?
Answer: The Log rate constant was 1.65 M-1 s-1.

Question: For `CN(C)[C@@H]1C(=O)C(C(N)=O)=C(O)C2C(O)C3=C(C[C@H]21)[C@@](C)(O)c1c(Cl)ccc(O)c1C3=O` (some centres undefined), which Log rate constant is on record?
Answer: Its Log rate constant is -0.47 M-1 s-1.

Question: Which Log rate constant does the source give for `CN(C)[C@@H]1C(=O)C(C(N)=O)=C(O)[C@@]2(O)C(=O)C3=C(O)c4c(O)ccc([N+](=O)[O-])c4CC3C[C@@H]12` (some centres undefined) here?
Answer: Its Log rate constant is 2.87 M-1 s-1.

Question: With `CN(C)[C@@H]1C(=O)C(C(N)=O)=C(O)[C@@]2(O)C(O)=C3C(=O)c4c(O)ccc(Cl)c4[C@](C)(O)C3C[C@@H]12` (some centres undefined) as the compound, how does the Log rate constant read?
Answer: The Log rate constant was 2.6 M-1 s-1.

Question: `CN(C)[C@@H]1C(=O)C(C(N)=O)=C(O)[C@@]2(O)C(=O)C3=C(O)c4c(O)ccc(Br)c4CC3C[C@@H]12` (some centres undefined) was tested. Which Log rate constant did it give?
Answer: The Log rate constant was 1.71 M-1 s-1.

Question: How did the Log rate constant turn out when `CN(C)[C@@H]1C(=O)C(C(N)=O)=C(O)[C@@]2(O)C(=O)C3=C(O)c4c(ccc(N)c4O)CC3C[C@@H]12` (some centres undefined) was run?
Answer: Its Log rate constant is 2.16 M-1 s-1.

Question: How did the Log rate constant turn out when `CN(C)[C@@H]1C(=O)C(C(N)=O)=C(O)[C@@]2(O)C(O)=C3C(=O)c4c(O)cccc4[C@](C)(O)C3C[C@@H]12` (some centres undefined) was run?
Answer: Its Log rate constant is 2.43 M-1 s-1.

Question: With `CN(C)[C@@H]1C(=O)C(C(N)=O)=C(O)C2C(=O)C3=C(O)c4c(O)cccc4CC3C[C@H]21` (some centres undefined) as the compound, how does the Log rate constant read?
Answer: Its Log rate constant is 0.41 M-1 s-1.

Question: How did the Log rate constant turn out when `CN(C)[C@@H]1C(=O)C(C(N)=O)=C(O)[C@@]2(O)C(O)=C3C(=O)c4c(O)cccc4[C@](C)(O)C3C(=O)[C@@H]12` (some centres undefined) was run?
Answer: The Log rate constant was 2.41 M-1 s-1.

Question: `Cc1c2c(c(O)c3c(O)cccc13)C(=O)C1C(O)=C(C(N)=O)C(=O)[C@@H](N(C)C)[C@@H]1C2` (some centres undefined) was tested. Which Log rate constant did it give?
Answer: The Log rate constant was 1.19 M-1 s-1.

Question: For `CN(C)[C@@H]1C(=O)C(C(N)=O)=C(O)[C@@]2(O)C(=O)C3=C(O)c4c(O)ccc(Cl)c4C(O)C3C[C@@H]12` (some centres undefined), which Log rate constant is on record?
Answer: The Log rate constant was 2.71 M-1 s-1.

Question: How did the Log rate constant turn out when `CN(C)c1ccc2c(c1O)C(O)=C1C(=O)[C@]3(O)C(O)=C(C(N)=O)C(=O)[C@@H](N(C)C)[C@@H]3CC1C2` (some centres undefined) was run?
Answer: The Log rate constant was 1.37 M-1 s-1.

Question: `CN(C)[C@@H]1C(=O)C(C(N)=O)=C(O)[C@@]2(O)C(=O)C3=C(O)c4c(O)ccc(N)c4CC3C[C@@H]12` (some centres undefined) was tested. Which Log rate constant did it give?
Answer: The Log rate constant was 2.26 M-1 s-1.

species on record: Mus musculus; experiment: Logarithm of effective dose evaluated using the foot-shock test in mice; format: functional; conditions: not given

Question: Which “Log ED50” value does the source give for `CN1C(=O)CN=C(c2ccccc2F)c2ccccc21` [RO-054520] here?
Answer: Its value is 0.83 mM kg-1.

Question: How did the “Log ED50” value turn out when `CSc1ccc2c(c1)C(c1ccccc1)=NCC(=O)N2C` was run?
Answer: The value was 0.87 mM kg-1.

Question: `CN1C(=O)CN=C(c2ccccc2F)c2cc(Cl)ccc21` [FLUDIAZEPAM] was tested. Which “Log ED50” value did it give?
Answer: Its value is 1.78 mM kg-1.

Question: Which “Log ED50” value does the source give for `CSc1ccc2c(c1)C(c1ccccc1)=NCC(=O)N2` here?
Answer: Its value is 1.15 mM kg-1.

Question: For `CN1C(=O)CN=C(c2ccccc2F)c2cc([N+](=O)[O-])ccc21` [FLUNITRAZEPAM], which “Log ED50” value is on record?
Answer: Its value is 2.59 mM kg-1.

Question: For `O=C1CN=C(c2ccccc2)c2cc([N+](=O)[O-])ccc2N1` [NITRAZEPAM], which “Log ED50” value is on record?
Answer: Its value is 1.75 mM kg-1.

Question: How did the “Log ED50” value turn out when `O=C1CN=C(c2ccccc2)c2cc(F)ccc2N1` [RO-053061] was run?
Answer: Its value is 0.4 mM kg-1.

Question: `CN1C(=O)CN=C(c2ccccc2C(F)(F)F)c2cc([N+](=O)[O-])ccc21` was tested. Which “Log ED50” value did it give?
Answer: The value was 1.86 mM kg-1.

Question: For `CN1C(=O)CN=C(c2ccccc2)c2cc([N+](=O)[O-])ccc21` [NIMETAZEPAM], which “Log ED50” value is on record?
Answer: The value was 2.07 mM kg-1.

Question: With `CN(C)c1ccc2c(c1)C(c1ccccc1)=NCC(=O)N2C` as the compound, how does the “Log ED50” value read?
Answer: The value was 0.86 mM kg-1.

Question: `CN1C(=O)CN=C(c2ccccc2)c2cc(C#N)ccc21` was tested. Which “Log ED50” value did it give?
Answer: The value was 1.74 mM kg-1.

Question: Which “Log ED50” value does the source give for `CN1C(=O)CN=C(c2ccccc2)c2cc(Cl)ccc21` [DIAZEPAM] here?
Answer: Its value is 1.45 mM kg-1.

Question: For `O=C1CN=C(c2ccccc2)c2cc(C(F)(F)F)ccc2N1` [RO-052904], which “Log ED50” value is on record?
Answer: Its value is 1.48 mM kg-1.

Question: For `CN1C(=O)CN=C(c2ccccc2Cl)c2cc(Cl)ccc21`, which “Log ED50” value is on record?
Answer: Its value is 1.5 mM kg-1.

Question: `CN1C(=O)CN=C(c2ccccc2Cl)c2cc([N+](=O)[O-])ccc21` [RO-054082] was tested. Which “Log ED50” value did it give?
Answer: Its value is 2.12 mM kg-1.

Question: How did the “Log ED50” value turn out when `O=C1CN=C(c2ccccc2)c2ccccc2N1` [RO-052921] was run?
Answer: Its value is 0.37 mM kg-1.

Question: Which “Log ED50” value does the source give for `N#Cc1ccc2c(c1)C(c1ccccc1)=NCC(=O)N2` here?
Answer: The value was 0.81 mM kg-1.

Question: With `CN(C)c1ccc2c(c1)C(c1ccccc1Cl)=NCC(=O)N2C` as the compound, how does the “Log ED50” value read?
Answer: Its value is 0.61 mM kg-1.
